Measured values published in US20260137701A1, “CHOLESTENOIC ACID (CA) AND A SULFATED DERIVATIVE THEREOF, 3[BETA]-SULFATE-5-CHOLESTENOIC ACID (CA3S), AS ENDOGENOUS EPIGENETIC REGULATORS” (priority 2022, published 2026).

Tested on: HepG-2 cells
Assay: mRNA sequencing, differential expression genes
Format: cell-based, human
Method: After culturing HepG-2 cells in DMEM medium with HG for 72 hours followed by treating with 20 μM CA for 0, 3, 6, 12, and 24 hours, genomic DNA from 5×10^7 cells were extracted using QIAamp® DNA Mini Kit (QIAGEN, Hilden, Germany). Each sample, 6 μg, was sent to CD Genomics Co., Ltd (New York, USA) for analysis of WGBS. Total RNA was isolated using the Promega SV total RNA isolation system (Madison, WI, USA) with DNase treatment. Each sample, 2 μg, were sent to CD Genomics Co., Ltd (New York, USA) for analysis of RNA sequencing. The same samples, 2 μg, was used for the first-strand cDNA synthesis as recommended by the manufacturer (Invitrogen, Carlsbad, CA). RT-qPCR was performed using SYBR Green as the indicator on ABI 7500 Fast Real-Time PCR System (Applied Biosystems, Foster City, CA). Amplifications of j-actin or GAPDH were used as internal controls. Relative messenger RNA (mRNA) expression was quantified with the comparative cycle threshold (Ct) method using a sutiable primer set and was expressed as 2-ΔΔCt as described previously.
Total RNA was extracted and purified from HepG-2 cells using SV total RNA isolation system (Promega, Madison, WI). Messenger RNA was purified from total RNA using poly-T oligo-attached magnetic beads. After fragmentation, the first strand cDNA was synthesized using random hexamer primers, followed by the second strand cDNA synthesis using either dUTP for directional library or dTTP for non-directional library. The library was checked with Qubit and real-time PCR for quantification and bioanalyzer for size distribution detection. Quantified libraries will be pooled and sequenced on Illumina® platforms, according to effective library concentration and data amount. Raw data (raw reads) of fastq format were first processed through in-house perl scripts. In this step, clean data (clean reads) were obtained by removing reads containing adapter, reads containing ploy-N and low-quality reads from raw data. At the same time, Q20, Q30 and GC content of the clean data were calculated. All the downstream analyses were based on clean data with high quality. The clean data were aligned to reference genome (GRCh37) using Hisat2 v2.0.5 software. Differential expression genes (DEGs) were performed using the DESeq2 R package (1.20.0). DAVID software (website located at david.ncifcrf.gov/) was used to test the statistical enrichment of DMR related genes in the GO and KEGG pathways.

## CC(CCC[C@@H](C)[C@H]1CC[C@H]2[C@@H]3CC=C4C[C@@H](O)CC[C@]4(C)[C@H]3CC[C@]12C)C(=O)O (stereo partly drawn) [CA, 3β-hydroxy-5-cholestenoic acid]
20 μM CA, 6 hours
  Fold Change ABCF1 (down regulated gene): −1.35 fold
  Fold Change ACTA1 (up regulated gene): 1.32 fold
  Fold Change ACTN4 (up regulated gene): 3.26 fold
  Fold Change ANGPTL8 (down regulated gene): −1.77 fold
  Fold Change ARHGAP17 (up regulated gene): 2.50 fold
  Fold Change ATG16L1 (down regulated gene): −1.32 fold
  Fold Change C2 (down regulated gene): −1.14 fold
  Fold Change C5orf51 (down regulated gene): −1.06 fold
  Fold Change CD99 (up regulated gene): 3.60 fold
  Fold Change COG5 (down regulated gene): −1.44 fold
  Fold Change CPSF1 (down regulated gene): −4.45 fold
  Fold Change CUTA (up regulated gene): 1.76 fold
  Fold Change CYP1A1 (up regulated gene): 1.97 fold
  Fold Change CYP51A1 (down regulated gene): −1.25 fold
  Fold Change DCAF11 (down regulated gene): −1.74 fold
  Fold Change DLG5 (up regulated gene): 1.44 fold
  Fold Change DNHD1 (down regulated gene): −1.21 fold
  Fold Change EEF1A1P13 (up regulated gene): 2.82 fold
  Fold Change EEF1B2 (up regulated gene): 1.29 fold
  Fold Change EHMT2 (up regulated gene): 1.16 fold
  Fold Change FBL (down regulated gene): −1.87 fold
  Fold Change FDFT1 (down regulated gene): −1.30 fold
  Fold Change FLII (up regulated gene): 2.04 fold
  Fold Change FST (up regulated gene): 1.25 fold
  Fold Change FZD1 (up regulated gene): 1.06 fold
  Fold Change GBA (up regulated gene): 2.25 fold
  Fold Change GBP1 (up regulated gene): 1.37 fold
  Fold Change GFUS (down regulated gene): −2.73 fold
  Fold Change GMPR2 (up regulated gene): 3.88 fold
  Fold Change GNL1 (up regulated gene): 1.59 fold
  Fold Change GTF2H1 (up regulated gene): 1.85 fold
  Fold Change GTPBP6 (down regulated gene): −2.08 fold
  Fold Change HMGCR (down regulated gene): −1.55 fold
  Fold Change HMGCS1 (down regulated gene): −2.12 fold
  Fold Change HSD17B7 (down regulated gene): −1.05 fold
  Fold Change HSPA1A (up regulated gene): 1.22 fold
  Fold Change HSPA1B (up regulated gene): 1.16 fold
  Fold Change IBTK (down regulated gene): −2.44 fold
  Fold Change ID3 (down regulated gene): −2.65 fold
  Fold Change IDI1 (down regulated gene): −1.86 fold
  Fold Change INPP5K (up regulated gene): 1.04 fold
  Fold Change IPO4 (down regulated gene): −1.51 fold
  Fold Change IRF9 (up regulated gene): 1.42 fold
  Fold Change LDLR (down regulated gene): −1.46 fold
  Fold Change LFNG (up regulated gene): 1.02 fold
  Fold Change LINC02119 (down regulated gene): −1.39 fold
  Fold Change LOC729973 (down regulated gene): −1.08 fold
  Fold Change LOC107985276 (down regulated gene): −1.32 fold
  Fold Change LOC112268009 (up regulated gene): 1.19 fold
  Fold Change LPCAT1 (down regulated gene): −1.43 fold
  Fold Change MCRIP1 (up regulated gene): 2.17 fold
  Fold Change MINCR (up regulated gene): 1.24 fold
  Fold Change MSMO1 (down regulated gene): −2.30 fold
  Fold Change MT1E (up regulated gene): 1.81 fold
  Fold Change MT1F (up regulated gene): 2.51 fold
  Fold Change MT1G (up regulated gene): 2.43 fold
  Fold Change MT1X (up regulated gene): 2.15 fold
  Fold Change MT2A (up regulated gene): 1.44 fold
  Fold Change MTCH2 (down regulated gene): −2.50 fold
  Fold Change MTMR11 (up regulated gene): 1.48 fold
  Fold Change MVD (down regulated gene): −1.20 fold
  Fold Change MVK (down regulated gene): −1.57 fold
  Fold Change MYEOV (down regulated gene): −1.08 fold
  Fold Change NDUFS1 (up regulated gene): 1.45 fold
  Fold Change NEK10 (up regulated gene): 1.06 fold
  Fold Change NEU4 (down regulated gene): −1.99 fold
  Fold Change NOP9 (down regulated gene): −2.89 fold
  Fold Change NPIPA2 (up regulated gene): 1.32 fold
  Fold Change NUP160 (down regulated gene): −1.36 fold
  Fold Change PAK1 (down regulated gene): −1.14 fold
  Fold Change PAK1IP1 (down regulated gene): −3.71 fold
  Fold Change PALLD (up regulated gene): 1.02 fold
  Fold Change PCSK9 (down regulated gene): −1.08 fold
  Fold Change PFKFB4 (down regulated gene): −1.30 fold
  Fold Change PHF1 (up regulated gene): 1.42 fold
  Fold Change PNPLA3 (down regulated gene): −1.42 fold
  Fold Change POLR3E (down regulated gene): −1.12 fold
  Fold Change PRPF31 (up regulated gene): 1.38 fold
  Fold Change PRSS8 (down regulated gene): −1.46 fold
  Fold Change PSMB3 (down regulated gene): −4.67 fold
  Fold Change PSME2 (up regulated gene): 2.33 fold
  Fold Change PTEN (down regulated gene): −1.64 fold
  Fold Change PTGDR2 (up regulated gene): 1.58 fold
  Fold Change PUF60 (down regulated gene): −2.01 fold
  Fold Change RBFOX2 (down regulated gene): −1.14 fold
  Fold Change RCBTB2 (up regulated gene): 1.18 fold
  Fold Change RDH11 (down regulated gene): −1.06 fold
  Fold Change RN7SK (down regulated gene): −1.58 fold
  Fold Change RNF187 (up regulated gene): 1.25 fold
  Fold Change RPS9 (down regulated gene): −1.14 fold
  Fold Change RPS14P1 (up regulated gene): 1.50 fold
  Fold Change RPS17 (up regulated gene): 3.79 fold
  Fold Change RRN3 (down regulated gene): −1.05 fold
  Fold Change RUSC1-AS1 (down regulated gene): −1.37 fold
  Fold Change SBNO2 (up regulated gene): 1.13 fold
  Fold Change SERTAD1 (up regulated gene): 1.06 fold
  Fold Change SGK1 (up regulated gene): 1.03 fold
  Fold Change SLC39A7 (up regulated gene): 2.59 fold
  Fold Change SLC39A10 (down regulated gene): −1.10 fold
  Fold Change SNHG32 (down regulated gene): −1.62 fold
  Fold Change SPC25 (down regulated gene): −1.51 fold
  Fold Change SPSB2 (up regulated gene): 1.18 fold
  Fold Change SQLE (down regulated gene): −1.73 fold
  Fold Change SQSTM1 (down regulated gene): −1.29 fold
  Fold Change STARD4 (down regulated gene): −1.26 fold
  Fold Change STAT5A (up regulated gene): 1.09 fold
  Fold Change SYBU (up regulated gene): 1.09 fold
  Fold Change SYNPO (up regulated gene): 1.14 fold
  Fold Change TBCE (down regulated gene): −1.67 fold
  Fold Change TINF2 (down regulated gene): −1.58 fold
  Fold Change TJP1 (up regulated gene): 1.02 fold
  Fold Change TPM1-AS (up regulated gene): 1.08 fold
  Fold Change TRNH (down regulated gene): −1.08 fold
  Fold Change U2AF1 (up regulated gene): 1.40 fold
  Fold Change UGT2A3 (up regulated gene): 1.83 fold
  Fold Change VARS1 (up regulated gene): 3.03 fold
  Fold Change VPS11 (up regulated gene): 1.96 fold
  Fold Change YWHAE (down regulated gene): −1.84 fold
3 hours post treatment
  number of DEGs regulated by CA, total: 109
  number of DEGs, down-regulated: 50
  number of DEGs, up-regulated: 59
6 hours
  number of DEGs regulated by CA, total: 120
  number of DEGs, down-regulated: 61
  number of DEGs, up-regulated: 59
12 hours
  number of DEGs regulated by CA, total: 164
  number of DEGs, down-regulated: 80
  number of DEGs, up-regulated: 84
24 hours
  number of DEGs regulated by CA, total: 245
  number of DEGs, down-regulated: 112
  number of DEGs, up-regulated: 133
